These results are taken from EP0676201B1, “Use of a riminophenazine for treating MDR resistance” (priority 1994, dated 1995).

Assay [1] concerns H69/LX4. The assay can be described thus: [14C]-vinblastine accumulation in MDR cell line (Example 2). It is filed as cell-based, human. The note with it: 1 hour pretreatment; 250 µg/mℓ [14C]-vinblastine for 30 minutes. The procedure: The effect of riminophenazines on the accumulation of [^14C]-vinblastine was investigated. For these experiments, both of the above cell lines (H69/LX4 and H69/P) were prepared as described by Coley et al (Biochem. Pharmacal 38, 4467-4475 (1989)). After a 1 hour pretreatment with the MDR reversal agents, cells (1 x 10^6/mℓ) were exposed to 250 µg/mℓ [^14C]-vinblastine (1 µCi specific activity) for 30 minutes. […] The results are illustrated in Figure 3 of the accompanying drawings.

The test system of the next assay is K562/MMB. The assay can be described thus: MTT assay, 7-day exposure to riminophenazines alone or with fixed doxorubicin or vinblastine (Example 4). It counts as cell-based. The note with it: Homo sapiens, K562, 168 h. On the technique in general: Tetrazolium assays rely on reduction of a dye to a coloured formazan, in cell work by metabolically active cells.
In assay [2] the test system is H69/LX4. The assay can be described thus: MTT assay, 7-day exposure to riminophenazines alone or with fixed doxorubicin or vinblastine (Example 3). The note with it: Homo sapiens, 168 h, read-out: cytotoxic activity: concentrations at which cytotoxic.
Experimental: The effects were examined of a 7-day exposure of selected compounds on the sensitivity of the cell line (H69/P) and the resistance cell line (H69/LX4) to the standard chemotherapeutic agents doxorubicin and vinblastine, using the MTT assay.
After incubation at 37°C for 7 days, 20 µℓ MTT (ie 3-[4,5-dimethylthiazol-2-yl]-2,5-diphenyl-tetrazolium bromide) at 5 mg/ml was added to each well and the plates incubated for a further 4 hours. The cells were washed with phosphate buffered saline and the intracellular formazan crystals solubilized with dimethylsulphoxide, and the absorbence measured spectrophotometrically at a test wavelength of 540 nm and a reference wavelength of 620 nm. The mean percentage inhibition ± SEM of four experiments using the relevant controls was taken.
Assay [3] has as its system H69/LX4. The assay can be described thus: MTT assay, 7-day exposure: sensitivity of resistant (MDR) cells to chemotherapeutic agents with or without MDR inhibitor (Example 1). It is filed as cell-based. The note with it: Homo sapiens, 168 h. The text has this: (§1) A further test using no MDR inhibitor was used as a standard.
The cell lines used were human small cell lung cancer cell line HP69/P and a multi-drug resistant (MDR) sub-line H69/LX4, both of which were supplied by the MRC Clinical Oncology and Radiotherapeutics Unit, Hills Road, Cambridge, England. The maintenance of the cell lines and drug response assays was done as described by Twentyman et al in British Journal of Cancer Volume 65 pages 335-340. The H69/LX4 line was originally described by Twentyman et al in British Journal of Cancer Volume 53, pages 529-637 (1986).
The data in parenthesis represents fold sensitivity compared with the chemotherapeutic agent without the MDR inhibitor.

The subject of another assay is H69/P. The assay is described as follows: MTT assay, 7-day exposure: sensitivity of parent cells to chemotherapeutic agents with or without MDR inhibitor (Example 1). It is filed as cell-based, human. The note with it: for fold sensitivity compared with the chemotherapeutic agent without the MDR inhibitor, B669 / fold sensitivity compared with the chemotherapeutic agent without the MDR inhibitor, Clofazimine (B663) / fold sensitivity compared with the chemotherapeutic agent without the MDR inhibitor, CsA: value in parenthesis; for fold sensitivity compared with the chemotherapeutic agent without the MDR inhibitor, CsA: with CsA 5 µg/ml; for IC50: Homo sapiens, 168 h.
Source text: as §1

[4] abbreviates: in the presence of doxorubicin (12 ng/ml), read-out: IC 50 of riminophenazine, Doxorubicin.
[5] abbreviates: in the presence of vinblastine (3 ng/ml), read-out: IC 50 of riminophenazine, Vinblastine.
Setting [6] is: riminophenazine alone, mean of 2 experiments, read-out: IC 50 of riminophenazine, None.
Where [7] appears, read: read-out: IC50 of chemotherapeutic agent, MDR INHIBITOR CsA.
Setting [8] is: H69/LX4, no MDR inhibitor, 7 day exposure, mean of 2 - 4 experiments, read-out: IC50 of chemotherapeutic agent, MDR INHIBITOR None.
The mark [9] stands for this setting: H69/LX4, with B669 0.5 µg/ml, 7 day exposure, read-out: IC50 of chemotherapeutic agent, MDR INHIBITOR B669.
Setting [10] is: H69/LX4, with Clofazimine 1 µg/ml, 7 day exposure, read-out: IC50 of chemotherapeutic agent, MDR INHIBITOR Clofazimine (B663).
Where [11] appears, read: H69/P, with Clofazimine 1 µg/ml.
[12] abbreviates: H69/P, no MDR inhibitor, 7 day exposure, mean of 2 - 4 experiments, read-out: IC50 of chemotherapeutic agent, MDR INHIBITOR None.
[13] abbreviates: H69/P, with B669 0.5 µg/ml, 7 day exposure, read-out: IC50 of chemotherapeutic agent, MDR INHIBITOR B669.
Where [14] appears, read: H69/P, with Clofazimine 1 µg/ml, 7 day exposure, read-out: IC50 of chemotherapeutic agent, MDR INHIBITOR Clofazimine (B663).

In brackets after ≈: the same amount, converted by molar mass. Where two headings read alike, the source gives them in different places. Some results are limits rather than exact numbers.

Source text for K562/MMB: A third cell line (562/MMB) used was a MDR leukemia cell line selected in vitro by progressive exposure to increasing concentrations of vinblastine in order to increase P-glycoprotein expression. […] This cell line expresses high levels of P-glycoprotein as determined by flowcytometry using the monoclonal antibody (MRK 16) against this molecule.
The effects were examined of a 7-day exposure of selected compounds on the sensitivity of the cell line (K562/MMB) to the standard chemotherapeutic agents doxorubicin and vinblastine, using the MTT assay.
The cells were seeded at 1 x 10^4 cells per well in 96 well microlitre plates in a volume of 200 µl of RPMI 1640 medium containing 10 % fetal calf serum and incubated with doxorubicin (12.5 ng/ml) or vinblastine (3 ng/ml). The amounts of MDR modulators used were 0.03, 0.06, 0.125, 0.5, 1.0 and 2.0 µg/ml.
After incubation at 37 °C for 7 days, 20 µl MTT (i.e. 3-[4,5-dimethylthiazol-2-yl]2,5-diphenyl-tetrazolium bromide) at 5 mg/ml was added to each well and the plates incubated for a further 4 hours. The cells were washed with phosphate buffered saline and the intracellular formazan crystals solubilized with dimethylsulphoxide, and the absorbency measured spectrophotometrically at a test wavelength of 540 nm and a reference wavelength of 620 nm.

With `CC(C)N=c1cc2n(-c3ccc(Cl)cc3)c3ccccc3nc-2cc1Nc1ccc(Cl)cc1` [Compound B663, N,5-bis-(4-chlorophenyl)-3,5-dihydro-3-[(1-methylethyl)imino]-2-phenazinamine], in the assay on H69/LX4 [1], the “vinblastine accumulation in the MDR cell line (H69/LX4)” value was “significant enhancement”. For the same molecule, the IC50 in the assay on K562/MMB (setting [4]) was 0.135 µg/mL; in the assay on K562/MMB (setting [5]), below 0.05 µg/mL; in the assay with K562/MMB (setting [6]) it was 0.225 µg/mL (≈ 0.475 µM).
For `c1ccc(Nc2cc3nc4ccccc4n(-c4ccccc4)c-3cc2=NC2CCCCC2)cc1` [Compound B669], the “vinblastine accumulation in the MDR cell line (H69/LX4)” value with H69/LX4 [1] is recorded as “significant enhancement”. The results for the IC50 in the assay with K562/MMB (setting [4]) and with K562/MMB (setting [6]) were 0.069 µg/mL and 0.139 µg/mL (≈ 0.313 µM), respectively.
Take `CC1(C)CC(N=c2cc3n(-c4cc(Cl)c(Cl)c(Cl)c4)c4ccccc4nc-3cc2Nc2cc(Cl)c(Cl)c(Cl)c2)CC(C)(C)N1` [Compound B4169, N,5-bis(3,4,5-trichlorophenyl)-3,5-dihydro-3[(2',2',6',6'-tetramethyl-4-piperidyl)-imino]-2-phenazinamine]: the MCC with H69/LX4 [2] was above 12.5 µg/mL. Besides, the IC50 in the assay with K562/MMB (setting [4]) came to 0.969 µg/mL; in the assay on K562/MMB (setting [5]), 0.116 µg/mL; in the assay with K562/MMB (setting [6]), 2.86 µg/mL (≈ 4.04 µM).
Take `CN(Cc1cnc2nc(N)nc(N)c2n1)c1ccc(C(=O)N[C@@H](CCC(=O)O)C(=O)O)cc1` [Methotrexate]: the IC50 in the assay with H69/LX4 [3] (setting [7]) was 4.6 µg/mL (≈ 10.1 µM); in the assay with H69/LX4 [3] (setting [8]) it was 3.2 µg/mL (≈ 7.04 µM); with H69/LX4 [3] (setting [9]), 3.5 µg/mL (≈ 7.7 µM); in the assay on H69/LX4 [3] (setting [10]), 4.4 µg/mL (≈ 9.68 µM); in the assay on H69/P (setting [7]), 2.4 µg/mL (≈ 5.28 µM); in the assay with H69/P (setting [12]), 3.5 µg/mL (≈ 7.7 µM). For the same molecule, the IC50 with H69/P (setting [13]) worked out at 3.4 µg/mL (≈ 7.48 µM); in the assay with H69/P (setting [14]), 3.7 µg/mL (≈ 8.14 µM). Besides, the “fold sensitivity compared with the chemotherapeutic agent without the MDR inhibitor, B669” value in the assay on H69/P (H69/P, with B669 0.5 µg/ml) was 1.0 fold. Moreover, the “fold sensitivity compared with the chemotherapeutic agent without the MDR inhibitor, Clofazimine (B663)” value in the assay on H69/P (setting [11]) amounted to 0.9 fold. Besides, the “fold sensitivity compared with the chemotherapeutic agent without the MDR inhibitor, CsA” value in the assay with H69/P (H69/P) is 1.5 fold.
In the case of `CO[C@@]12[C@H](COC(N)=O)C3=C(C(=O)C(C)=C(N)C3=O)N1C[C@@H]1N[C@@H]12` [Mitomycin C], the IC50 was 0.08 µg/mL (≈ 0.239 µM) in the assay with H69/LX4 [3] (setting [7]); 0.04 µg/mL (≈ 0.12 µM) with H69/LX4 [3] (setting [9]); 0.06 µg/mL (≈ 0.179 µM) with H69/LX4 [3] (setting [10]); 0.01 µg/mL (≈ 0.0299 µM) in the assay with H69/P (read-out: IC50 of chemotherapeutic agent, MDR INHIBITOR B669); 0.01 µg/mL (≈ 0.0299 µM) in the assay on H69/P (read-out: IC50 of chemotherapeutic agent, MDR INHIBITOR Clofazimine (B663)); 0.009 µg/mL (≈ 0.0269 µM) with H69/P (setting [7]).
For `CC[C@]1(O)C[C@@H]2CN(CCc3c([nH]c4ccccc34)[C@@](C(=O)OC)(c3cc4c(cc3OC)N(C)[C@H]3[C@@](O)(C(=O)OC)[C@H](OC(C)=O)[C@]5(CC)C=CCN6CC[C@]43[C@@H]65)C2)C1` [Vinblastine], the IC50 was 0.008 µg/mL (≈ 0.00986 µM) in the assay with H69/LX4 [3] (setting [7]); 0.12 µg/mL (≈ 0.148 µM) with H69/LX4 [3] (setting [8]); 0.008 µg/mL (≈ 0.00986 µM) in the assay with H69/LX4 [3] (setting [9]); 0.008 µg/mL (≈ 0.00986 µM) with H69/LX4 [3] (setting [10]); 0.0007 µg/mL (≈ 0.000863 µM) in the assay with H69/P (setting [7]); 0.001 µg/mL (≈ 0.00123 µM) in the assay with H69/P (setting [12]). Further, the IC50 was determined as 0.0009 µg/mL (≈ 0.00111 µM) in the assay on H69/P (setting [13]) and 0.0008 µg/mL (≈ 0.000986 µM) in the assay with H69/P (setting [14]). The “fold sensitivity compared with the chemotherapeutic agent without the MDR inhibitor, B669” value with H69/P (H69/P, with B669 0.5 µg/ml) stood at 1.1 fold. Moreover, the “fold sensitivity compared with the chemotherapeutic agent without the MDR inhibitor, Clofazimine (B663)” value with H69/P (setting [11]) was 1.3 fold. Moreover, in the assay with H69/P (H69/P), the “fold sensitivity compared with the chemotherapeutic agent without the MDR inhibitor, CsA” value worked out at 1.4 fold.
